No end group written: not given here.
System: male Lewis-rats
Test: DTH ear swelling after 65 kD-protein challenge in rats with adjuvant arthritis
Format: in vivo
Settings: 0.01 mg/kg injections day 0-5 and day 8-12; 10 µg 65 kD-protein into ear day 22, swelling day 24; group average

In the case of “TAVVALELQ-OH [peptide I, Thr-Ala-Val-Val-Ala-Leu-Glu-Leu-Gln-OH]”, the “% swelling” value was 2.8 ± 3.4%.

Reference: EP0365087A1, “Immunotoxins for the treatment or prophylaxis of auto-immune diseases” (priority 1988, dated 1990)
